How the values were obtained:
[1] = tested on: pAKT, pS6, HER3, pHER3, HER2 in human breast cancer cell lines; experiment: immunoblotting of PI3K/AKT pathway markers; type: cell-based
Protocol: Immunoprecipitation, immunoblotting, and RTK assays were performed according to published methods. Primary antibodies included AKT, pAKT^S473, pAKT^T308, ERK, pERK^T202/Y204, pHER2^Y1248, pHER3^Y1197, pHER3^Y1222, pHER3^Y1289, S6, pS6^S240/244, p27, pRb^S780, FoxO1, FoxO3a, MEK1/2 (Cell Signaling Technology, Danvers, Mass., USA), p85, 4G10 pTyr (Millipore, Billerica, Mass., USA), HER3, CyclinD1, RhoA, HDAC3 (Santa Cruz Biotechnology, Santa Cruz, Calif., USA), PARP (BD Transduction Laboratories), β-actin (Sigma, St. Louis, Mo., USA), and HER2 (Neomarkers, division of Thermo Scientific, Freemenot, Calif., USA). Species-specific horseradish peroxidase-conjugated secondary antibodies were from Promega (Madison Wis., USA). Immunoreactive signals were detected by enhanced chemilluminsecence (Pierce, Rockford, Ill., USA). Phospho-RTK arrays were from R&D Systems (Minneapolis, Minn., USA) total cell lysates were used to hybridize with the arrays according to the manufacturer's instructions.
A panel of breast cancer cell lines with dysregulated PI3K activity was treated with increasing doses of compound A under two- and three-dimensional (2D and 3D) growth conditions. All experiments were conducted in 2.5% FBS-containing media, unless otherwise stated. […] This was further confirmed by immunoblot analysis of biomarkers of cell death and G1-S cell cycle transition in lysates from cells treated for 24 hours with compound A as shown in FIG. 10B.
Experiments were performed to examine the effect of compound A on a more comprehensive panel of molecules in the PI3K and TOR signaling pathways.
Although pHER3 is known to activate the extracellular signal regulated kinase (ERK/MAPK) via its interaction through the adaptor protein Shc, recovery of pERK upon feedback reactivation of HER3 was not detected consistently as shown in FIG. 13A.

[2] = tested on: HER3 mRNA; experiment: real-time qPCR of HER3 mRNA; type: cell-based, human; conditions: BT474, SKBR3, MDA453 cells; 6 μM; time course up to 48 hours
Protocol: FIG. 12B depicts a bar chart of timed HER3 mRNA transcription in BT474 cells which were treated with 2 μM 5J8, 20 μM LY294002, and 50 nM rapamycin for 10 hours prior to RNA isolation and qPCR analysis with HER3-specific primers.

[3] = tested on: BT474 xenografts; experiment: BT474 xenograft experiments; type: in vivo, mice; conditions: trastuzumab 30 mg/kg twice-a-week i.p.; lapatinib 100 mg/kg daily; compound A 100 mg/kg daily gavage; 28 days
Protocol: Tumor volumes were recorded twice-a-week. Each data point represents the mean tumor volume in mm^3±SE of 8 mice per type of treatment. CR=complete response to treatment.
Animal experiments were approved by the Institutional Animal Care Committee of Vanderbilt University Medical Center (VUMC). Mice were housed in the accredited Animal Care Facility of the VUMC. A 17β-estradiol pellet (Innovative Research of America) was injected subcutaneously (s.c.) into each 6- to 7-week-old athymic female mice (Harlan Sprague Dawley, Inc.) the day before tumor cell injection. BT474 cells (3×10^6) mixed 1:1 with Matrigel (BD Biosciences) were injected s.c. into the right flank of each mouse. Tumor diameters were measured with calipers twice-a-week and volume in mm^3 calculated with the formula: volume=width^2×length/2. […] Mice were euthanized after 28 days of treatment.
There was no significant drug-related toxicity in any of the treatment arms.

[4] = tested on: HER3, pHER3^Y1289, pAKT^S473; experiment: immunohistochemistry of BT474 xenografts; type: in vivo, mice; conditions: day 28
Protocol: FIG. 18B depicts photomicrographs of immunohistochemistry sections from formalin-fixed, paraffin-embedded tumor blocks. Xenografts were harvested on day 28, 1 hour after the last dose of lapatinib and/or compound A. Antibodies used were against HER3, pHER3^Y1289, and pAKT^S473. Photographs were taken at 400× magnification (scale bar: 50 μm).
All tumor samples (collected within 1 hour of last treatment) were fixed in 10% neutral buffered formalin for 24 hours at room temperature, followed by dehydration and paraffin embedding. Immunostaining was done on 5-μm tissue sections. After deparaffinization in xylene and graded alcohols heat-induced antigen retrieval was performed in a pH 6.0 citrate buffer followed by incubation with 3% hydrogen peroxide for 20 minutes, with protein block (Dako) for 10 minutes, and finally with primary antibody overnight at 4° C. The Envision Visualization System (Dako, Carpinteria, Calif., USA) was used, followed by DAB as chromagen and counterstained with hematoxylin. Tumor sections were studied on a light microscope with an ocular magnification of 400 times. Average percentage and intensity of tumor cell staining was calculated as a histoscore (H-score) (as described in Goulding, H., et al. (1995), Hum. Pathol. 26:291-294, which is incorporated herein by reference in its entirety). An expert pathologist (MGK) scoring the sections was blinded to the type of treatment.
Using immunohistochemistry (IHC), experiments were performed to examine pharmacodynamic biomarkers of target inactivation in xenografts after 28 days of treatment. […] Therefore, experiments were performed to quantify differences in pAKT^S473 expression in both cytoplasmic and nuclear compartments in xenograft sections.

[5] = tested on: subcutaneous A-549 human lung xenografts; experiment: antitumor activity in A549 xenografts; type: in vivo, Swiss nude mice; conditions: for activity rating: compound A at 30 mg/kg PO daily (text), 30 mg/kg
Description: Control groups were left untreated.
Animal body weights included the tumor weights.

[6] = concentrations below 20 μM, 24 hours
[7] = Compound A PO 5 (160) mg/kg Q1Dx32
[8] = Compound A PO 100 (3200) mg/kg Q1Dx32

## COc1ccc(Cl)c(Nc2nc3ccccc3nc2NS(=O)(=O)c2cccc(NC(=O)C(C)(C)N)c2)c1 [Compound A]
[1]; 24 hours
  cell lines with upregulation of total HER3 and/or pHER3^Y1289 levels: 6/7
[1]; BT474, 6 μM
  time to recovery of pAKT and pS6 levels: ≤ 6 hours
[1]; BT474, 6 μM, 0-72 hours
  total HER3, pHER3, pAKT time course: time-dependent upregulation of total HER3, HER3 phosphorylated at Y1197 and Y1289
[1]; BT-474 cells, 6 uM, inhibitor added every 24 hours
  HER3 RNA and protein time course: time-dependent upregulation of HER3 RNA and protein, beginning at 6 hours and increasing through 72 hours
[1]; HER2-overexpressing cells
  catalytic activity or autophosphorylation of HER2: does not affect the catalytic activity or autophosphorylation of HER2
[1]; SKBR-3 and MDA-453 cells, like in BT-474
  P-Erk: P-Erk is upregulated
[1]; all cell lines, 0-20 μM
  pAKT^S473/T308 and pS6^S240/244: dose-dependent reduction in pAKT^S473/T308 and pS6^S240/244
[1]; all cell lines, 24 hours, 0-20 μM
  PI3K signaling as measured by pAKT^S473: dose-dependent inhibition of PI3K signaling
[1]; [6]
  cyclin D1, pRB, p27^KIP1: reduction in cyclin D1 and pRB and an increase in levels of the CDK inhibitor p27^KIP1
  total or cleaved PARP: no change in levels of total or cleaved PARP
[1]; upon inhibition of PI3K
  HER2-overexpressing cell lines with modest upregulation of total HER2 and/or pHER2^Y1248: 5/6
[2]
  HER3 mRNA levels: increase in HER3 mRNA that appeared maximal at 6 hours and was maintained up to 48 hours
[3]
  tumor growth, monotherapy: significantly delayed tumor growth
[4]
  nuclear pAKT^S473 by IHC: statistically inhibited nuclear pAKT levels
  pHER3 by IHC: did not reduce membrane pHER3
[5]; [7]
  Biological response at day 68: Very
  Median ΔT/ΔC in % day 68: 5%
[5]; [8]
  Biological response at day 68: highly active
  Median % of regression on day 68: 15%
  Median ΔT/ΔC in % day 68: −4%
[5]; Compound A PO 100 (3200) mg/kg Q1Dx32, listed as compound A
  Biological response at day 68: high activity
[5]; compound A at 30 mg/kg PO daily
  ΔT/ΔC (treated vs control tumor volume change): 5%
[5]
  activity rating: very active
[5]; listed as compound A
  activity rating: high activity

From patent US9011863B2, “Combinations of kinase inhibitors for the treatment of cancer” (Exelixis, Inc., priority 2010, dated 2015)
